From patent publication US10407381B2 (THE BOARD OF TRUSTEES OF THE UNIVERSITY OF ILLINOIS, priority 2015, dated 2019)
Where two headings read alike, the source gives them in different places.

Assays:
5-HT2A = 5-HT2A (Homo sapiens, UniProt P28223); experiment: Calcium flux (FLIPR) assay, human 5-HT2A stably expressed in HEK-293 (Flp-In-293) cells; settings: for Emax, % 5-HT 5-HT2A: normalized to 5-HT
C57BL/6J mice = experiment: Amphetamine-stimulated activity test (open field), schizophrenia-like animal model; settings: for influence on spontaneous activity, compound alone: 20 mg/kg i.p., 20-Veh groups; for AMPH-stimulated hyperlocomotion relative to the Veh-AMPH group: 10 or 20 mg/kg i.p., 3 mg/kg amphetamine, distance travelled 16-120 min, p-values<0.035; for dose dependence of suppression of AMPH hyperactivity: 10 versus 20 mg/kg i.p.
human 5-HT2C-INI = molecular target: T1, human 5-HT2C-INI (Homo sapiens, UniProt P28335); experiment: Calcium flux (FLIPR) assay, human 5-HT2C-INI stably expressed in HEK-293 (Flp-In-293) cells; settings: human 5-HT2C-INI in HEK-293 cells, FLIPR; for EC50: NA = no activity at 10 μM; for Emax, % 5-HT 5-HT2C: normalized to 5-HT
T1 sequence (P28335 33-458): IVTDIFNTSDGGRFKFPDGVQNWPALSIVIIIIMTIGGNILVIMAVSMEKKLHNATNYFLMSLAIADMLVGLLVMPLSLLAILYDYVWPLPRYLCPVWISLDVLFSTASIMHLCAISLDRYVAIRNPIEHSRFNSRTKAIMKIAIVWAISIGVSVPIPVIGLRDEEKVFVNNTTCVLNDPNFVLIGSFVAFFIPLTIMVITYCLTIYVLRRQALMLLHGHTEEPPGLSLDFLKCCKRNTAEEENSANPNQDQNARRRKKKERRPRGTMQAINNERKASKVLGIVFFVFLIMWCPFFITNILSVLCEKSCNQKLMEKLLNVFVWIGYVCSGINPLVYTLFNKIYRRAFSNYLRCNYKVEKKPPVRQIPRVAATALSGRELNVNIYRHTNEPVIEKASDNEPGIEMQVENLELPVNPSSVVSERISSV

rat 5-HT2C-INI = molecular target: T2, rat 5-HT2C-INI (Rattus norvegicus, UniProt P08909); experiment: Calcium flux (FLIPR) assay, rat 5-HT2C-INI receptors expressed on PO1C cells; format: cell-based; settings: data acquired with rat 5-HT2C-INI receptors expressed on PO1C cells; for EC50: NA = no activity at 10 μM, read-out: EC50, nM 5-HT2C (footnote a)
T2 construct: expressed in transfected cells; host or cells: rat PO1C cell line
T2 sequence (P08909 33-460): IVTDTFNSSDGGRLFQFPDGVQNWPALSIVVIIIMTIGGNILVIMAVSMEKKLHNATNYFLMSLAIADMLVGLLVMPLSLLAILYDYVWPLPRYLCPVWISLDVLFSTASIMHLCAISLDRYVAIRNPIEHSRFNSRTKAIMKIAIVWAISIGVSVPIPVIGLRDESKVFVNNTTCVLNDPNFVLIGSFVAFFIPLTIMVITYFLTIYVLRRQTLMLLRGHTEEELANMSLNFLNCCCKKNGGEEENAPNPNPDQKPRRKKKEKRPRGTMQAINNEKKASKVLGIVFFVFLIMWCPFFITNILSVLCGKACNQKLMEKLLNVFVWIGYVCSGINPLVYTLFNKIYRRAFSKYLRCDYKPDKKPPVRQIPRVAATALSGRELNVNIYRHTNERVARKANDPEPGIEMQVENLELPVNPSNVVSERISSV
Description: Rat 5-HT2C-INI Receptors Expressed on PO1C Cells
Rat PO1C cell line stably expressing the rat 5-HT2C-INI was plated onto Poly-L-Lys-coated 384-well black clear bottom cell culture plates in DMEM 1% dialyzed FBS (12 000 cells/well). Preceding the experiment, culture medium was removed and 20 μl of assay buffer (20 mM Hepes, pH 7.40, Hanks' balanced salt solution, 2.5 mM probenecid, 1×FLIPR calcium dye) was added and cells incubated at 37° C. for 1 h. Serial dilution of each tested drugs were prepared at 3× final concentration and transfer to a 384-well plates. Cell and drug plates were placed in a FLIPR^TETRA fluorescence imaging plate reader ([…]) and programmed to read baseline for 10 sec (1 read/s) and then add 10 μl of drug/well and to read additional 120 sec. […] Data were plotted and normalized compared to 5-HT and regressed using sigmoidal dose-response function. Data of two independent experiments (n=2) conducted in quadruplicate are presented. Analyses were performed using the software GraphPad Prism 6.0.

5-HT2B = 5-HT2B (Homo sapiens, UniProt P41595); experiment: Calcium flux (FLIPR) assay, human 5-HT2B stably expressed in HEK-293 (Flp-In-293) cells; settings: for Emax, % 5-HT 5-HT2B: normalized to 5-HT
Sequence of 5-HT2B (P41595 whole entry): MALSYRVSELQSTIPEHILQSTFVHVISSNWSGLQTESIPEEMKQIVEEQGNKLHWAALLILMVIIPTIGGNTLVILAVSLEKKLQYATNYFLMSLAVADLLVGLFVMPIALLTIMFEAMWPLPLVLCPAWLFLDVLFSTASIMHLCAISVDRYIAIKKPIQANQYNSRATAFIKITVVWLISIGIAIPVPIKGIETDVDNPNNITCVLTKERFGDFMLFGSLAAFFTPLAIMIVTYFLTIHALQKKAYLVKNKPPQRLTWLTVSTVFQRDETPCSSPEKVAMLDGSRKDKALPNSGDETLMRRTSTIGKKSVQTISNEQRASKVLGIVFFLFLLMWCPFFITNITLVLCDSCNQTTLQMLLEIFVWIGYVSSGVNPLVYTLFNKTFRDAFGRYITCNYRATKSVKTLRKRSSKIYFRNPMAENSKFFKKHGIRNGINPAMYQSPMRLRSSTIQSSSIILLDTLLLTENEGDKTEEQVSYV

[1] = EC50, nM 5-HT2A, human 5-HT2A in HEK-293 cells, FLIPR, NA = no activity at 10 μM
[2] = human 5-HT2A in HEK-293 cells, FLIPR
[3] = EC50, nM 5-HT2B, human 5-HT2B in HEK-293 cells, NA = no activity at 10 μM
[4] = read-out: EC50, nM 5-HT2A, human 5-HT2A in HEK-293 cells, FLIPR, NA = no activity at 10 μM

Sequence of 5-HT2A (P28223 whole entry): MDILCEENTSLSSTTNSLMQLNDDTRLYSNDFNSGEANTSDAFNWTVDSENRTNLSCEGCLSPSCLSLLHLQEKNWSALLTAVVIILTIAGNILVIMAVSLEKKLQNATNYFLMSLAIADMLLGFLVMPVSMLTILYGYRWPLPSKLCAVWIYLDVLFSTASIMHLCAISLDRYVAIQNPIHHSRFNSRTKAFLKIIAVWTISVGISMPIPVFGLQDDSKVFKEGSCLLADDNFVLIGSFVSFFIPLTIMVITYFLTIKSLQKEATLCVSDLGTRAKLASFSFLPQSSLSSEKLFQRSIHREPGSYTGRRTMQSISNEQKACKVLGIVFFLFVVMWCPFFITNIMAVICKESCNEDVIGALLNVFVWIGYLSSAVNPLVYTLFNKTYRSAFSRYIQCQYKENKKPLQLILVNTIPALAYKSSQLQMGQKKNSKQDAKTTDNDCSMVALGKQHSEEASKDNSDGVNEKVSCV

| Emax, % 5-HT 5-HT2C (footnote a) (rat 5-HT2C-INI) | EC50 (rat 5-HT2C-INI) | SMILES | EC50 (5-HT2A; [1]) | Emax, % 5-HT 5-HT2A (5-HT2A; [2]) | EC50 (human 5-HT2C-INI; EC50, nM 5-HT2C) | Emax, % 5-HT 5-HT2C (human 5-HT2C-INI) | EC50 (5-HT2B; [3]) | Emax, % 5-HT 5-HT2B (5-HT2B; human 5-HT2B in HEK-293 cells) | also measured |
| --- | --- | --- | --- | --- | --- | --- | --- | --- | --- |
|  |  | C=CCOc1ccc(F)cc1C1CC1CN (single isomer, unassigned; (+)) [(+)-Example 8, (+)-(2-(2-(Allyloxy)-5-fluorophenyl)cyclopropyl)methanamine] | 374 nM | (56%) % 5-HT | 4.2 nM | (87%) % 5-HT |  |  | influence on spontaneous activity, compound alone (C57BL/6J mice): little influence; AMPH-stimulated hyperlocomotion relative to the Veh-AMPH group (C57BL/6J mice): significantly reduced; dose dependence of suppression of AMPH hyperactivity (C57BL/6J mice): dose-dependently suppressed the hyperactivity |
| (79%) ^a % 5-HT | 1800 nM | NCC1CC1c1cc(Cl)ccc1Oc1ccccc1 (single isomer, unassigned; (+)) [(+)-Example 27, (+)-(2-(5-Chloro-2-phenoxyphenyl)cyclopropyl)methanamine] |  |  |  |  |  |  |  |
| (91%) ^a % 5-HT | 56 nM | CC(C)Oc1cc(F)c(Cl)cc1C1CC1CN (single isomer, unassigned; (+)) [(+)-Example 3, (+)-(2-(5-Chloro-4-fluoro-2-isopropoxyphenyl)cyclopropyl)methanamine] |  |  |  |  |  |  |  |
| (86%) ^a % 5-HT | 588 nM | CC(C)Oc1cc(F)c(Cl)cc1C1CC1CN (single isomer, unassigned; (-)) [(−)-Example 3, (−)-(2-(5-Chloro-4-fluoro-2-isopropoxyphenyl)cyclopropyl)methanamine] |  |  |  |  |  |  |  |
| (42%) ^a % 5-HT | 3960 nM | NCC1CC1c1cc(Cl)ccc1Oc1ccccc1 (single isomer, unassigned; (-)) [(−)-Example 27, (−)-(2-(5-Chloro-2-phenoxyphenyl)cyclopropyl)methanamine] |  |  |  |  |  |  |  |
| (51%) ^a % 5-HT | 1540 nM | NCC1CC1c1cc(Cl)ccc1OCc1ccccc1 (single isomer, unassigned; (-)) [(−)-Example 28, (−)-(2-(2-(benzyloxy)-5-chlorophenyl)cyclopropyl)methanamine] |  |  |  |  |  |  |  |
| (85%) ^a % 5-HT | 495 nM | NCC1CC1c1cc(Cl)ccc1OCC(F)(F)F (single isomer, unassigned; (+)) [(+)-Example 22, (+)-(2-(5-Chloro-2-(2,2,2-trifluoroethoxy)phenyl)cyclopropyl)methanamine] |  |  |  |  |  |  |  |
|  |  | CCCOc1cc(F)c(F)cc1C1CC1CN (single isomer, unassigned; (+)) [(+)-Example 43, (+)-(2-(4,5-Difluoro-2-propoxyphenyl)cyclopropyl)methanamine] |  | (23%) % 5-HT | 26 nM | (93%) % 5-HT | 2540 nM | (24%) % 5-HT | EC50 (5-HT2A; EC50, nM 5-HT2A): 805 nM |
|  |  | NCC1CC1c1cc(F)ccc1OCCF (single isomer, unassigned; (+)) [(+)-Example 10, (+)-(2-(5-Fluoro-2-(2-fluoroethoxy)phenyl)cyclopropyl)methanamine] | 359 nM | (76%) % 5-HT | 3.4 nM | (89%) % 5-HT |  |  | influence on spontaneous activity, compound alone (C57BL/6J mice): little influence; AMPH-stimulated hyperlocomotion relative to the Veh-AMPH group (C57BL/6J mice): significantly reduced; dose dependence of suppression of AMPH hyperactivity (C57BL/6J mice): not differentiated by dose |
|  |  | COc1ccc(Cl)c(F)c1C1CC1CN (single isomer, unassigned; (-)) [(−)-Example 29, (−)-(2-(3-chloro-2-fluoro-6-methoxyphenyl)cyclopropyl)methanamine] |  | (86%) % 5-HT |  | (93%) % 5-HT |  | (64%) % 5-HT | EC50 (5-HT2A; [4]): 68 nM; EC50 (5-HT2B; read-out: EC50, nM 5-HT2B, human 5-HT2B in HEK-293 cells, NA = no activity at 10 μM): 165 nM; EC50 (human 5-HT2C-INI; read-out: EC50, nM 5-HT2C): 3.8 nM |
|  |  | NCC1CC1c1cc(Cl)ccc1OCC(F)F (single isomer, unassigned; (-)) [(−)-Example 21, (−)-(2-(5-Chloro-2-(2,2-difluoroethoxy)phenyl)cyclopropyl)methanamine] | 1300 nM | (43%) % 5-HT | 914 nM | (64%) % 5-HT | 1480 nM | (30%) % 5-HT |  |
|  |  | COc1ccc(F)c(Cl)c1C1CC1CN (single isomer, unassigned; (+)) [(+)-Example 50, (+)-(2-(2-Chloro-3-fluoro-6-methoxyphenyl)cyclopropyl)methanamine] |  | (77%) % 5-HT |  | (88%) % 5-HT |  | (60%) % 5-HT | EC50 (5-HT2A; [4]): 769 nM; EC50 (human 5-HT2C-INI; read-out: EC50, nM 5-HT2C): 24 nM |
|  |  | CCOc1ccc(Cl)c(Cl)c1C1CC1CN (single isomer, unassigned; (-)) [(−)-Example 37, (−)-(2-(2,3-Dichloro-6-ethoxyphenyl)cyclopropyl)methanamine] | 625 nM | (12%) % 5-HT | 30 nM | (104%) % 5-HT | 6830 nM | (53%) % 5-HT |  |
|  |  | CCOc1cc(F)c(F)cc1C1CC1CN (single isomer, unassigned; (-)) [(−)-Example 41, (−)-(2-(2-Ethoxy-4,5-difluorophenyl)cyclopropyl)methanamine] | 778 nM | (52%) % 5-HT | 33 nM | (103%) % 5-HT | 299 nM | (35%) % 5-HT |  |
|  |  | C=C(F)COc1ccc(Cl)cc1C1CC1CN (single isomer, unassigned; (+)) [(+)-Example 25, (+)-(2-(5-Chloro-2-((2-fluoroallyl)oxy)phenyl)cyclopropyl)methanamine] |  |  | 133 nM | (81%) % 5-HT | 1690 nM | (27%) % 5-HT | influence on spontaneous activity, compound alone (C57BL/6J mice): little influence; AMPH-stimulated hyperlocomotion relative to the Veh-AMPH group (C57BL/6J mice): significantly reduced; dose dependence of suppression of AMPH hyperactivity (C57BL/6J mice): dose-dependently suppressed the hyperactivity |
|  |  | COc1ccc(Cl)c(F)c1[C@@H]1C[C@H]1CN (single isomer, unassigned) [(+)-Example 29, (+)-(2-(3-chloro-2-fluoro-6-methoxyphenyl)cyclopropyl)methanamine] | 212 nM | (85%) % 5-HT | 13 nM | (92%) % 5-HT | 354 nM | (52%) % 5-HT |  |
